In US10294202B2, “Pyrrolidinones as herbicides” (FMC Corporation, priority 2013, dated 2019):

What was measured:
[1] = tested on: foxtail, giant; test: Test C pre-/postemergence herbicide test; type: in vivo, Setaria faberii
Procedure, shortened: (§1)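 Plants grown and held in a greenhouse for 13 to 15 days post-spray, then rated 0–100 by visual comparison with controls. Pre treatments targeted seeds in loam and sand; post treatments targeted 1- to 4-leaf plants in peat-based potting medium.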

[2] = tested on: corn; test: Test C pre-/postemergence herbicide test; type: in vivo, Zea mays
Procedure, shortened: as §1

[3] = tested on: pigweed; test: Test A pre-/postemergence herbicide test; type: in vivo, Amaranthus retroflexus; settings: for Pigweed plant response rating: Preemergence, visual rating on 0 to 100 scale (0 no effect, 100 complete control)
Procedure, shortened: (§2)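 Approximately 10 days after treatment in the greenhouse, plants were compared with untreated controls and given a 0–100 visual injury rating. Applications: preemergence directed soil spray; postemergence on 2–10 cm plants at the one- to two-leaf stage.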

[4] = tested on: wheat; test: Test A pre-/postemergence herbicide test; type: in vivo, Triticum aestivum; settings: for Wheat plant response rating: Preemergence, visual rating on 0 to 100 scale (0 no effect, 100 complete control)
Procedure, shortened: as §2

[5] = tested on: lambsquarters; test: Test C pre-/postemergence herbicide test; type: in vivo, Chenopodium album
Procedure, shortened: as §1

[6] = tested on: nutsedge, yellow; test: Test C pre-/postemergence herbicide test; type: in vivo, Cyperus esculentus
Procedure, shortened: as §1

[7] = tested on: galium; test: Test C pre-/postemergence herbicide test; type: in vivo, Galium aparine; settings: Preemergence; for Galium plant response rating: 31 g ai/ha
Procedure, shortened: as §1

[8] = tested on: johnsongrass; test: Test C pre-/postemergence herbicide test; type: in vivo, Sorghum halepense
Procedure, shortened: as §1

[9] = tested on: velvetleaf; test: Test C pre-/postemergence herbicide test; type: in vivo, Abutilon theophrasti
Procedure, shortened: as §1

[10] = tested on: pigweed; test: Test C pre-/postemergence herbicide test; type: in vivo, Amaranthus retroflexus
Procedure, shortened: as §1

[11] = Postemergence, 31 g ai/ha, scale 0 (no effect) to 100 (complete control)
[12] = Postemergence, 62 g ai/ha, scale 0 to 100 (0 no effect, 100 complete control)
[13] = Postemergence, 125 g ai/ha, scale 0 to 100 (0 no effect, 100 complete control)
[14] = Postemergence, 250 g ai/ha, scale 0 to 100 (0 no effect, 100 complete control)
[15] = Preemergence, 31 g ai/ha, scale 0 to 100, 0 is no effect and 100 is complete control
[16] = Preemergence, 62 g ai/ha, scale 0 to 100
[17] = Preemergence, 125 g ai/ha, scale 0 to 100 (0 no effect, 100 complete control)
[18] = Postemergence, 125 g ai/ha, 0 to 100 scale, 0 no effect, 100 complete control
[19] = Postemergence, 500 g ai/ha, 0 to 100 scale (0 no effect, 100 complete control)
[20] = preemergence, 500 g ai/ha, 0 to 100 scale
[21] = 125 g ai/ha, scale 0 to 100 (0 no effect, 100 complete control)
[22] = Preemergence, 31 g ai/ha, scale 0 to 100 (0 no effect, 100 complete control)
[23] = Preemergence, 250 g ai/ha, scale 0 to 100 (0 no effect, 100 complete control)
[24] = scale 0 to 100 (0 no effect, 100 complete control)
[25] = 250 g ai/ha, scale 0 to 100 (0 no effect, 100 complete control)

O=C1NCC(c2ccccc2)C1C(=O)Nc1ccccc1F (racemic) [Compound 81]
37: Plant response rating, Foxtail, Giant [1, 17]
17: Plant response rating, Foxtail, Giant [1, 16]
20: Plant response rating, Wheat [4, 20]
0: Plant response rating, Foxtail, Giant [1, 11] | Plant response rating, Foxtail, Giant [1, 12] | Plant response rating, Foxtail, Giant [1, 13] | Foxtail, Giant plant response rating [1, 15] | Plant response rating, Corn [2, 11] | Plant response rating, Corn [2, 12] | Plant response rating, Corn [2, 13] | Plant response rating, Corn [2, 14] | Corn plant response rating [2, 15] | Plant response rating, Corn [2, 16] | Plant response rating, Corn [2, 17] | Plant response rating (scale of 0 to 100), Corn ([2]; Preemergence, 250 g ai/ha) | Plant response rating, Pigweed [3, 18] | Plant response rating, Pigweed [3, 19] | Pigweed plant response rating ([3]; 125 g ai/ha) | Plant response rating, Pigweed [3, 20] | Plant response rating, Wheat [4, 18] | Plant response rating, Wheat [4, 19] | Wheat plant response rating ([4]; 125 g ai/ha) | Plant response rating, Lambsquarters [5, 11] | Plant response rating, Lambsquarters [5, 12] | Plant response rating, Lambsquarters [5, 13] | Lambsquarters plant response rating [5, 15] | Plant response rating, Lambsquarters [5, 16] | Plant response rating, Lambsquarters [5, 17] | Plant response rating, Nutsedge, Yellow [6, 11] | Plant response rating, Nutsedge, Yellow [6, 12] | Plant response rating, Nutsedge, Yellow [6, 13] | Plant response rating, Nutsedge, Yellow [6, 14] | Nutsedge, Yellow plant response rating [6, 15] | Plant response rating, Nutsedge, Yellow [6, 16] | Plant response rating, Nutsedge, Yellow [6, 17] | Plant response rating (scale of 0 to 100), Nutsedge, Yellow ([6]; Preemergence, 250 g ai/ha) | Galium plant response rating ([7]; scale 0 to 100, 0 is no effect and 100 is complete control) | Plant response rating, Galium ([7]; 62 g ai/ha, scale 0 to 100) | Plant response rating, Galium [7, 21] | Plant response rating (scale of 0 to 100), Galium ([7]; 250 g ai/ha) | Plant response rating, Johnsongrass [8, 11] | Plant response rating, Johnsongrass [8, 12] | Plant response rating, Johnsongrass [8, 13] | Plant response rating, Johnsongrass [8, 14] | Johnsongrass plant response rating [8, 15] | Plant response rating, Johnsongrass [8, 16] | Plant response rating, Johnsongrass [8, 17] | Plant response rating (scale of 0 to 100), Johnsongrass ([8]; Preemergence, 250 g ai/ha) | Plant response rating, Velvetleaf [9, 11] | Plant response rating, Velvetleaf [9, 12] | Plant response rating, Velvetleaf [9, 13] | Plant response rating, Velvetleaf [9, 14] | Velvetleaf plant response rating [9, 15] | Plant response rating, Velvetleaf [9, 16] | Plant response rating, Velvetleaf [9, 17] | Plant response rating (scale of 0 to 100), Velvetleaf ([9]; Preemergence, 250 g ai/ha) | Plant response rating, Pigweed [10, 11] | Plant response rating, Pigweed [10, 12] | Plant response rating, Pigweed [10, 13] | Plant response rating, Pigweed [10, 14] | Pigweed plant response rating [10, 15] | Plant response rating, Pigweed [10, 16] | Plant response rating, Pigweed [10, 17] | Plant response rating (scale of 0 to 100), Pigweed ([10]; Preemergence, 250 g ai/ha)
7: Plant response rating, Foxtail, Giant [1, 14]
3: Plant response rating, Lambsquarters [5, 14]
73: Plant response rating (scale of 0 to 100), Foxtail, Giant ([1]; Preemergence, 250 g ai/ha)
27: Plant response rating (scale of 0 to 100), Lambsquarters ([5]; Preemergence, 250 g ai/ha)

O=C1NCC(c2ccc3c(c2)OC(F)(F)O3)C1C(=O)Nc1cccc(F)c1F (stereo not shown) [Compound 62]
65: Foxtail, Giant plant response rating [1, 22] | Plant response rating, Lambsquarters [5, 16]
80: Plant response rating, Foxtail, Giant [1, 16]
55: Plant response rating, Corn [2, 23]
30: Plant response rating, Corn [2, 17] | Plant response rating, Pigweed [3, 18] | Plant response rating, Pigweed [3, 20] | Plant response rating, Johnsongrass [8, 17]
0: Pigweed plant response rating ([3]; 125 g ai/ha) | Wheat plant response rating ([4]; 125 g ai/ha) | Plant response rating, Wheat [4, 20] | Galium plant response rating [7, 24] | Plant response rating, Galium ([7]; 62 g ai/ha, scale 0 to 100)
20: Corn plant response rating [2, 22] | Plant response rating, Corn [2, 16] | Plant response rating, Wheat [4, 18] | Plant response rating, Nutsedge, Yellow [6, 17] | Plant response rating, Velvetleaf [9, 16]
70: Plant response rating, Pigweed [3, 19] | Plant response rating, Lambsquarters [5, 17] | Plant response rating, Pigweed [10, 17]
10: Plant response rating, Nutsedge, Yellow [6, 16] | Plant response rating, Johnsongrass [8, 16]
85: Plant response rating, Foxtail, Giant [1, 17] | Plant response rating, Foxtail, Giant [1, 23] | Plant response rating, Galium [7, 21]
40: Plant response rating, Pigweed [10, 16]
90: Plant response rating, Galium [7, 25]
25: Plant response rating, Velvetleaf [9, 17]
60: Plant response rating, Wheat [4, 19]

O=C1NCC(c2ccc(Cl)c(F)c2)C1C(=O)Nc1ccccc1F (stereo not shown) [Compound 53]
10: Corn plant response rating [2, 22]
0: Plant response rating, Pigweed [3, 18] | Plant response rating, Pigweed [3, 19] | Pigweed plant response rating ([3]; 125 g ai/ha) | Plant response rating, Pigweed [3, 20] | Plant response rating, Wheat [4, 18] | Plant response rating, Wheat [4, 19] | Wheat plant response rating ([4]; 125 g ai/ha) | Plant response rating, Lambsquarters [5, 16] | Galium plant response rating [7, 24] | Plant response rating, Galium ([7]; 62 g ai/ha, scale 0 to 100) | Plant response rating, Galium [7, 21] | Plant response rating, Johnsongrass [8, 16] | Plant response rating, Johnsongrass [8, 17] | Plant response rating, Velvetleaf [9, 16] | Plant response rating, Velvetleaf [9, 17]
70: Plant response rating, Galium [7, 25]
85: Plant response rating, Foxtail, Giant [1, 23]
40: Foxtail, Giant plant response rating [1, 22] | Plant response rating, Lambsquarters [5, 17]
20: Plant response rating, Corn [2, 16] | Plant response rating, Corn [2, 17] | Plant response rating, Corn [2, 23] | Plant response rating, Wheat [4, 20] | Plant response rating, Nutsedge, Yellow [6, 16]
65: Plant response rating, Foxtail, Giant [1, 16] | Plant response rating, Foxtail, Giant [1, 17]
25: Plant response rating, Pigweed [10, 16] | Plant response rating, Pigweed [10, 17]
